The values below come from US20100062969A1, “HYDROPHILIC POLYMER-CONJUGATED LIPIDS FOR PEPTIDE AND PROTEIN FOLDING DISORDERS” (priority 2006, published 2010).

Data set [1] can be described thus: α-Helicity of VIP by circular dichroism. In kind it is physicochemical. The protocol:
(§1) • Lipid:peptide saturation ratio and number of peptide/micelle were determined via fluorescent spectroscopy where 10 μM of VIP was incubuated with varying concentration of SSM or SSMM to achieve lipid:peptide molar ratio ranging from 0 to 40. The data was then fitted into a simple, rectangular hyperbola curve using SigmaPlot® to determine lipid:peptide saturation ratio. The maximum number of peptide molecules that could interact with each micelle was calculated from the aggregation number of lipid monomers per micelle (˜90) for both SSM and SSMM (Ashok B, et al. J Pharm Sci 2004; 93: 2476-2487). • α-helicity was determined by CD using 20 μM of VIP in 5 mM of SSM or SSMM (lipid:VIP ratio of 250:1). The same samples were used for particle size measurement. • Fluorescent anisotropy was conducted using 100 μM of VIP in 4.5 mM of SSM or SSMM (lipid:VIP ratio of 45:1) which is close to the lipid:peptide saturation ratio. The measurements were done using Perkin Elmer luminescence spectrometer LS50B.
(In general: Circular dichroism is the unequal absorption of left and right circularly polarised light.)

The nature of data set [2]: Circulating half life of VIP in vivo. As to conditions: read-out: Circulating t½ in vivo (converted).
The nature of data set [3]: Fluorescent anisotropy of VIP. It counts as physicochemical. Particulars: 100 μM VIP, […] SSM or SSMM (lipid:VIP 45:1). On the procedure:
as §1

Data set [4] is described as follows: Stability of VIP and VIP-SSM in human serum. As to conditions: buffer or solvent.
Procedure: Since VIP is highly susceptible to enzymatic hydrolysis in serum, we have also tested serum stability of SSM-VIP formulation in a surrogate in vitro system. Briefly, DSPE-PEG2000 (5 mM) was weighed and hydrated (10 mM HEPES buffer, pH 7.4). VIP (5 nmol) was added to preformed SSM and incubated for 2 h at 25° C. to form VIP-SSM. Formulation was then incubated in human serum (25, 50% v/v). Sample aliquots were removed and analyzed on 0, 1, 3, 5 and 7 days following storage at 37° C. These samples were analyzed for the % of intact VIP associated with SSM following separation of unbound VIP from SSM.

Turning to `CC[C@H](C)[C@H](NC(=O)[C@H](CO)NC(=O)[C@H](CC(N)=O)NC(=O)[C@H](CC(C)C)NC(=O)[C@H](Cc1ccc(O)cc1)NC(=O)[C@H](CCCCN)NC(=O)[C@H](CCCCN)NC(=O)[C@@H](NC(=O)[C@H](C)NC(=O)[C@H](CCSC)NC(=O)[C@H](CCC(N)=O)NC(=O)[C@H](CCCCN)NC(=O)[C@H](CCCNC(=N)N)NC(=O)[C@H](CC(C)C)NC(=O)[C@H](CCCNC(=N)N)NC(=O)[C@@H](NC(=O)[C@H](Cc1ccc(O)cc1)NC(=O)[C@H](CC(N)=O)NC(=O)[C@H](CC(=O)O)NC(=O)[C@@H](NC(=O)[C@H](Cc1ccccc1)NC(=O)[C@@H](NC(=O)[C@H](C)NC(=O)[C@H](CC(=O)O)NC(=O)[C@H](CO)NC(=O)[C@@H](N)Cc1c[nH]cn1)C(C)C)[C@@H](C)O)[C@@H](C)O)C(C)C)C(=O)N[C@@H](CC(C)C)C(=O)N[C@@H](CC(N)=O)C(N)=O` [VIP in saline, vasoactive intestinal peptide], the “% α-Helix of VIP” value in data set [1] was 5 ± 1%. In addition, the half-life in data set [2] is 18 min. Besides, the Anisotropy in data set [3] turned out to be 0.052 ± 0.004. This molecule also had a metabolised at 24 h in data set [4] of approximately 65%.
